Experimental data taken from patent US20070254903A1, “Novel Spiroindoline or Spiroisoquinoline Compounds, Methods of Use and Compositions Thereof” (ARENA PHARMACEUTICALS, INC., priority 2003, published 2007).

Target: T1, human Mas receptor (Homo sapiens, UniProt P04201)
T1 construct: expressed in transfected cells
T1 sequence (P04201 1-325): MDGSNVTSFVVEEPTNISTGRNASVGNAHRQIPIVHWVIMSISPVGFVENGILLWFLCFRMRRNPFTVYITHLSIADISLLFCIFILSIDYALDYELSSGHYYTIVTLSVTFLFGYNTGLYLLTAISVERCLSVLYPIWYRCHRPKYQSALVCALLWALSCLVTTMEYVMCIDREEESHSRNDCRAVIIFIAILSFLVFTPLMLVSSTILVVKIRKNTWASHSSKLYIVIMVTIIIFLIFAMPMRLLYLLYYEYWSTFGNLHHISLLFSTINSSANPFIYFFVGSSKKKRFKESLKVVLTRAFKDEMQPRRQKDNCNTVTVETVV
Test: Mas receptor IP3 assay (inverse agonist assay)
Assay type: cell-based
Settings: HEK293 cells over-expressing human Mas receptor; average from several experiments
Method: The Mas receptor IP3 assay was performed using a mammalian cell line (HEK293) which was transfected with a plasmid containing the human Mas receptor and selected for stable expression of the receptor. For the inverse agonist assay, higher levels of Mas receptor constitutive activity were desired. To achieve this, Mas receptor expression levels were increased by transiently transfecting the same Mas receptor stable cell line with additional human Mas receptor plasmid DNA following standard procedures. These cells were used in the Mas receptor IP3 assay approximately 24 hours post-transfection.
Cells were split into 96-well plates (50,000 cells/well) and allowed to attach for a period of 6 hours. The growth medium was then replaced with medium supplemented with 4 μCi/ml [^3H]myo-inositol (100 μl; Perkin Elmer Life Sciences) and the cells were allowed to incubate for approximately 20 hours. Test compounds were serially diluted in inositol-free media containing 10 mM LiCl. The media in the plates was removed by aspiration, replaced with these test compound solutions and incubated at 37° C. for 1 hour. Following this incubation, the media was removed by aspiration and replaced with buffer containing 0.1M formic acid. The plates were then frozen overnight at −80° C. to achieve complete cell lysis.
The following day, the assay plates were thawed at room temperature. The thawed contents were then transfered to 96-well filter plates (Millipore, Multiscreen) pre-loaded with resin (Biorad, AG1-X8 100-200 mesh, formate form). The plate was filtered using a vacuum manifold and the resin was washed multiple times with water. An elution buffer was then applied (200 μl, 0.2M Ammonium formate/0.1M formic acid) and the resulting eluent was collected, under vacuum, in a 96-well collection plate. Aliquots of the eluent (80 μl) were transferred to filter plates (Whatman, Unifilter GF/C) and dried in a 45° C. oven overnight. Dried plates were counted on a scintillation counter following the addition of an appropriate scintillant (Perkin Elmer Life Sciences, Optiphase Supermix or Hi-Safe 3).

Row | Compound | IC50
1 | C=CCN1CCC2(CC1)CN(C(=O)c1cc(Cl)sc1Cl)c1ccc(F)cc12 [Compound 211, 1′-(allyl)-1,2-dihydro-5-fluoro-1-(2,5-dichloro-thiophene-3-carbonyl)-spiro[3H-indole-3,4′-piperidine]] | 855 nM
2 | C=CCN1CCC2(CC1)CN(C(=O)c1cccc3ccccc13)c1ccc(F)cc12 [Compound 85, 1′-(allyl)-1,2-dihydro-5-fluoro-1-(naphthalene-1-carbonyl)-spiro[3H-indole-3,4′-piperidine]] | 381 nM
